Results taken from PubChem BioAssay AID2254 (The Scripps Research Institute Molecular Screening Center, 2010).

molecular target: Serine hydrolase RBBP9 (Homo sapiens) (UniProt O75884); assay: RBBP9 hydrolase inhibition, IC50 by ABPP – biochemical, gel-based ABPP, late-stage follow-up (AID 2254); settings: fluorophosphonate probe labeling of RBBP9
Sequence (O75884 whole entry, looked up): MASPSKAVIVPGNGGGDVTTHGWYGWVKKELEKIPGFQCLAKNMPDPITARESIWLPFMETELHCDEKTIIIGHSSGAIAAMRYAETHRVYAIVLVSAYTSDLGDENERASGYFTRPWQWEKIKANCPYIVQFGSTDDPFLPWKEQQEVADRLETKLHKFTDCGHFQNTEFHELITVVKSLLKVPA

IC50, active:
COc1ccc(C(=O)O/N=C(\C)c2nccs2)cc1 9.1 µM
C/C(=N\OC(=O)c1ccc(F)cc1)c1nccs1 5.7 µM
C/C(=N\OC(=O)c1ccc(Cl)cc1)c1nccs1 1.9 µM
C/C(=N\OC(=O)C1CCCCC1)c1nccs1 0.635 µM
